From ChEMBL document CHEMBL4387705, “Synthesis of new arylsulfonylspiroimidazolidine-2',4'-diones and study of their effect on stimulation of insulin release from MIN6 cell line, inhibition of human aldose reductase, sorbitol accumulations in various tissues and oxidative stress” (Eur J Med Chem, 2019)
Calls of active or inactive are those of the source. The calls are words filed in the database; no cut-off is given here.

Experiments:
MIN6 [1] = test: Cytotoxicity against mouse MIN6 cells assessed as reduction in cell viability up to 200 uM incubated for 24 hrs by MTT assay; type: cell-based; details: min6, 24 h
[2] = Cytotoxicity against mouse MIN6 cells assessed as cell viability at 400 uM incubated for 24 hrs by MTT assay; type: cell-based; details: read-out: Activity
MIN6 [3] = test: Antidiabetic activity in mouse MIN6 cells after 35 passages assessed as increase in insulin secretion at 100 uM in presence of 25 mM glucose by ELISA relative to control; type: functional
MIN6 [4] = test: Antidiabetic activity in mouse MIN6 cells after 83 passages assessed as increase in insulin secretion at 100 uM in presence of 25 mM glucose by ELISA relative to control; type: functional
[5] = biological target: T1, Aldo-keto reductase family 1 member B1 (Homo sapiens, UniProt P15121); test: Inhibition of human recombinant ALR2 expressed in Escherichia coli using DL-glyceraldehyde as substrate and NADPH preincubated for 5 mins followed by substrate addition and measured after 30 mins at 2 mins interval by spectrophotometry relative to control
[6] = biological target: Aldo-keto reductase family 1 member A1 (Rattus norvegicus, UniProt P51635); test: Inhibition of rat kidney ALR1 using DL-glyceraldehyde as substrate and NADPH preincubated for 5 mins followed by substrate addition and measured for 30 mins at 2 mins interval by spectrophotometry relative to control
Chain of Aldo-keto reductase family 1 member A1 (P51635 whole entry, looked up): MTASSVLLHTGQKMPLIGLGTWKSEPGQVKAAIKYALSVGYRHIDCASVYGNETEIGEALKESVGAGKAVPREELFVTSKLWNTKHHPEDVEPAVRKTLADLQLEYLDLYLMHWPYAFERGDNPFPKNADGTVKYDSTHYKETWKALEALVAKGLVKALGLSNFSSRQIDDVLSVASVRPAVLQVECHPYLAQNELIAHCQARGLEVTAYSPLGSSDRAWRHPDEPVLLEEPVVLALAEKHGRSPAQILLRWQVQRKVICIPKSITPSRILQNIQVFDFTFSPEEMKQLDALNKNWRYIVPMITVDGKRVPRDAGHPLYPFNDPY

[7] = Selectivity ratio of IC50 for rat kidney ALR1 IC50 to IC50 for human recombinant ALR2
[8] = biological target: Aldo-keto reductase family 1 member B1 (Rattus norvegicus) (UniProt P07943); test: (§1) Inhibition of ALR2 in rat erythrocytes assessed as reduction in sorbitol accumulation incubated for 3 hrs in presence of 28 mM glucose by gas chromatographic analysis relative to control; type: cell-based
[9] = biological target: T2, Aldo-keto reductase family 1 member B1 (Rattus norvegicus, UniProt P07943); test: as §1; type: cell-based
[10] = biological target: Aldo-keto reductase family 1 member B1 (Rattus norvegicus) (UniProt P07943); test: (§2) Inhibition of ALR2 in rat sciatic nerve assessed as reduction in sorbitol accumulation incubated for 3 hrs in presence of 28 mM glucose by gas chromatographic analysis
[11] = biological target: T2, Aldo-keto reductase family 1 member B1; test: as §2
[12] = biological target: Aldo-keto reductase family 1 member B1 (Rattus norvegicus) (UniProt P07943); test: (§3) Inhibition of ALR2 in rat lens assessed as reduction in sorbitol accumulation incubated for 3 hrs in presence of 28 mM glucose by gas chromatographic analysis relative to control
[13] = biological target: T2, Aldo-keto reductase family 1 member B1; test: as §3
[14] = Antioxidant activity assessed as DPPH radical scavenging activity at 10 uM incubated for 30 mins under dark condition by spectrophotometry; type: functional
[15] = Antioxidant activity assessed as DPPH radical scavenging activity at 50 uM incubated for 30 mins under dark condition by spectrophotometry; type: functional
[16] = Antioxidant activity assessed as DPPH radical scavenging activity at 100 uM incubated for 30 mins under dark condition by spectrophotometry; type: functional
[17] = Cytotoxicity against HEK293 cells assessed as reduction in cell viability at 25 uM incubated for 48 hrs by MTT assay relative to control; type: cell-based; details: human, read-out: INH
[18] = Cytotoxicity against HEK293 cells assessed as reduction in cell viability at 50 uM incubated for 48 hrs by MTT assay relative to control; type: cell-based; details: human, read-out: INH
[19] = Cytotoxicity against HEK293 cells assessed as reduction in cell viability at 100 uM incubated for 48 hrs by MTT assay relative to control; type: cell-based; details: human, read-out: INH
[20] = Cytotoxicity against HEK293 cells assessed as reduction in cell viability at 200 uM incubated for 48 hrs by MTT assay relative to control; type: cell-based; details: human, read-out: INH
MIN6 [21] = test: Effect on cell morphology in mouse MIN6 cells assessed as cell viability up to 400 uM incubated for 24 hrs; type: cell-based; details: min6, 24 h
[22] = biological target: T1, Aldo-keto reductase family 1 member B1; test: Uncompetitive Inhibition of ALR2 (unknown origin) using varying level of D,L-glyceraldehyde as substrate at 10 uM in presence of NADPH by Lineweaver-Burk plot analysis
[23] = biological target: T1, Aldo-keto reductase family 1 member B1; test: Uncompetitive Inhibition of ALR2 (unknown origin) using fixed level of D,L-glyceraldehyde as substrate at 10 uM in presence of varying level of NADPH by Lineweaver-Burk plot analysis
[24] = biological target: T1, Aldo-keto reductase family 1 member B1; test: Non-competitive Inhibition of ALR2 (unknown origin) using fixed level of D,L-glyceraldehyde as substrate at 20 uM in presence of varying level of NADPH by Lineweaver-Burk plot analysis
Mus musculus = test: Antihyperglycemic activity in alloxanized BALB/c mouse assessed as reduction in blood glucose level at 150 mg/kg, po measured after 8 hrs relative to control; type: functional
[25] = biological target: T1, Aldo-keto reductase family 1 member B1; test: Non-competitive Inhibition of ALR2 (unknown origin) using varying level of D,L-glyceraldehyde as substrate at 20 uM in presence of NADPH by Lineweaver-Burk plot analysis
MIN6 [26] = test: Antidiabetic activity in mouse MIN6 cells after 35 passages assessed as increase in insulin secretion incubated for 48 hrs presence of 1 mM glucose by ELISA; type: functional, cell-based
MIN6 [27] = test: Antidiabetic activity in mouse MIN6 cells after 35 passages assessed as increase in insulin secretion incubated for 48 hrs presence of 25 mM glucose by ELISA; type: functional, cell-based
MIN6 [28] = test: Antidiabetic activity in mouse MIN6 cells after 83 passages assessed as increase in insulin secretion incubated for 48 hrs presence of 1 mM glucose by ELISA; type: functional, cell-based
MIN6 [29] = test: Antidiabetic activity in mouse MIN6 cells after 83 passages assessed as increase in insulin secretion incubated for 48 hrs presence of 25 mM glucose by ELISA; type: functional, cell-based
[30] = test system: CC(C)c1ccc(S(=O)(=O)N2C(=O)NC(=O)C23CCCc2ccccc23)cc1; test: Uncompetitive Inhibition of ALR2 (unknown origin) assessed as substrate Km using varying level of D,L-glyceraldehyde as substrate at 10 uM in presence of NADPH by Lineweaver-Burk plot analysis (reference value: 0.585 mM); details: Homo sapiens

| Compound | Activity (MIN6 [1]) | viability at 24 h, 400 µM [2] [%] | Activity (MIN6 [3]) [%] | Activity (MIN6 [4]) [%] | IC50 [5] [µM] | IC50 [6] [µM] | Ratio IC50 [7] | inhibition [8] | IC50 [9] [µM] | inhibition [10] | IC50 [11] [µM] | inhibition [12] | IC50 [13] [µM] | inhibition [14] [%] | inhibition [15] [%] | inhibition [16] [%] | cytotoxicity at 48 h, 25 µM [17] [%] | cytotoxicity at 48 h, 50 µM [18] [%] | cytotoxicity at 48 h, 100 µM [19] [%] | cytotoxicity at 48 h, 200 µM [20] [%] | also measured |
| --- | --- | --- | --- | --- | --- | --- | --- | --- | --- | --- | --- | --- | --- | --- | --- | --- | --- | --- | --- | --- | --- |
| COc1ccc(S(=O)(=O)N2C(=O)NC(=O)C23CCCc2ccccc23)cc1 (stereo not given) | Non-Toxic | 81 | 170 | 122 | 5.66 | 10.6 | 1.88 | Dose-dependent effect | 7.15 | Dose-dependent effect | 6.37 | Dose-dependent effect | 7.44 | 41.4 | 53.3 | 66.8 | 14 | 21.1 | 25.2 | 27.5 | Activity (MIN6 [21]): Non-Toxic |
| CC(C)c1ccc(S(=O)(=O)N2C(=O)NC(=O)C23CCCc2ccccc23)cc1 (stereo not given) | Non-Toxic | 81 | 230 | 192 | 0.56 | 68.2 | 73.7 | Dose-dependent effect | 0.85 | Dose-dependent effect | 0.72 | Dose-dependent effect | 0.83 | 72.7 | 75.2 | 85.3 | 14.2 | 16.2 | 16.1 | 22.3 | inhibition [22]: Active; inhibition [23]: Active; inhibition [24]: Active; inhibition in vivo at 150 mg/kg (Mus musculus): 50.3%; Activity (MIN6 [21]): Non-Toxic; inhibition [25]: Active |
| CCCCNC(=O)NS(=O)(=O)c1ccc(C)cc1 [TOLBUTAMIDE] | – | – | 340 | 110 | – | – | – | – | – | – | – | – | – | – | – | – | – | – | – | – | Activity (MIN6 [26]): Active; Activity (MIN6 [27]): Active; Activity (MIN6 [28]): Active; Activity (MIN6 [29]): Active; inhibition in vivo at 150 mg/kg (Mus musculus): 47.2% |
| Aldo-keto reductase family 1 member B1 (Homo sapiens) (from UniProt P15121) | – | – | – | – | – | – | – | – | – | – | – | – | – | – | – | – | – | – | – | – | Km [30]: 537 µM |
| CC(=O)c1ccc(S(=O)(=O)N2C(=O)NC(=O)C23CCCc2ccccc23)cc1 (stereo not given) | Non-Toxic | 81 | 370 | 228 | 0.64 | 32.2 | 53.7 | Dose-dependent effect | 0.6 | Dose-dependent effect | 0.67 | Dose-dependent effect | 0.65 | 25.2 | 39.7 | 75.5 | 16.3 | 23.2 | 26.6 | 34.6 | Activity (MIN6 [26]): Active; Activity (MIN6 [27]): Active; Activity (MIN6 [28]): Active; Activity (MIN6 [29]): Active; inhibition in vivo at 150 mg/kg (Mus musculus): 52.2%; Activity (MIN6 [21]): Non-Toxic |
| CC(C)c1ccc(S(=O)(=O)N2C(=O)NC3(CCCc4ccccc43)C2=O)cc1 (stereo not given) | Non-Toxic | 81 | 295 | 84 | 8.02 | 32.5 | 4.05 | Dose-dependent effect | 10.3 | Dose-dependent effect | 13 | Dose-dependent effect | 10.7 | 82.3 | 84.2 | 92.3 | 10.1 | 12.5 | 12.6 | 18.5 | Activity (MIN6 [26]): inactive; Activity (MIN6 [27]): inactive; Activity (MIN6 [28]): inactive; Activity (MIN6 [21]): Non-Toxic |
